In article PMC8072719, “Synthesis and Antiproliferative Activity of Triazoles Based on 2-Azabicycloalkanes” (Materials, 2021):
Read-outs that look alike come from different tables or passages of the source.

Key:
MIA PaCa-2 = test: Growth inhibition assay (SRB assay), pancreatic tumor cell line MIA PaCa-2; type: cell-based, human; conditions: Homo sapiens, mean ± SD
Procedure: (§1) Three human cancer cell lines were used to evaluate the antiproliferative activity of the obtained compounds: melanoma cell line Hs294T, pancreatic tumor cell line MIA PaCa-2, and lung tumor cell line NCI-H1581. The normal mouse fibroblasts cell line (BALB/3T3 clone A31) was selected as reference. All these lines were purchased from the ATCC (American Type Culture Collection, Rockville, MD, USA). NCI-H1581 cells were grown in RPMI 1640 with GlutaMax medium (Gibco, Thermo Fisher Scientific, Leicestershire, UK) with 5% fetal bovine serum (FBS; HyClone, GE Healthcare, Logan, UT, USA). Hs294T and BALB/3T3 cells were grown in Dulbecco’s Modified Eagle Medium (DMEM; Gibco, Thermo Fisher Scientific, Leicestershire, UK) supplemented with 2 mM L-glutamine and 10% FBS (HyClone, GE Healthcare, Logan, UT, USA). MIA PaCa-2 cells were grown in DMEM (Gibco, Thermo Fisher Scientific, Leicestershire, UK) supplemented with 2 mM L-glutamine, 2.5% Horse Serum (Gibco, Thermo Fisher Scientific, Leicestershire, UK), and 10% FBS (HyClone, GE Healthcare, Logan, UT, USA). All culture media were supplemented with antibiotics: 100 U/mL penicillin (Polfa Tarchomin SA, Warsaw, Poland) and 100 µg/mL streptomycin (Sigma-Aldrich Chemie GmbH, Steinheim, Germany); cells were grown at 37 °C in a humid atmosphere with 5% CO2.
(§2) Twenty-four hours prior to the addition of the tested compounds, 2000 cells per well of Balb/3T3, MIA PaCa-2, and Hs294T cell lines and 2500 cells of NCI-H1581 cell line were seeded in 384-well plates (Greiner Bio-One, Kremsmünster, Austria) in an appropriate medium. The studied compounds were added to the cells at 8 different concentrations in a series of dilutions from 100 to 0.00001 µg/mL for 72 h. Cisplatin was applied as a reference compound (Teva Pharmaceuticals, Warsaw, Poland). DMSO (Sigma-Aldrich Chemie GmbH, Steinheim, Germany) was used as solvent control. The DMSO concentrations corresponded to the solvent concentrations in the tested compound solutions. Then, 30 µL per well of ice-cold 50% TCA (trichloroacetic acid, Avantor, Gliwice, Poland) was added to the cells. After one hour of incubation at room temperature (RT) cells were washed five times with water and stained with 0.4% SRB (sulforhodamine B, Sigma-Aldrich Chemie GmbH, Steinheim, Germany). Twenty-five microliters per well of 0.4% solution of SRB in 1% acetic acid (Avantor, Gliwice, Poland) was applied. After 0.5 h of incubation at RT, the unbound dye was washed out with 1% acetic acid. The bound dye in each well was dissolved in 70 µl of 10 mM TRIS (Tris base, Sigma-Aldrich, Chemie GmbH, Steinheim, Germany). A microplate reader (BioTek Synergy H4, Swindon, UK) with Gen5 software was used to read the absorbance at 540 nm. The results are presented as mean IC50 values (concentration of the compound that inhibits cell proliferation by 50%) ± standard deviation. Half-maximal inhibitory concentration (IC50) values were calculated using the Prolab-3 system based on Cheburator 0.4 [22]. Each experiment was performed in triplicate, and three independent repetitions were made for each experiment. Raw data and IC50 values were placed in the supplementary materials.

BALB/3T3 clone A31 = test: Growth inhibition assay (SRB assay), normal fibroblasts BALB/3T3 clone A31; type: cell-based, mouse; conditions: Mus musculus, BALB/3T3 clone A31, 72 h, mean ± SD
Procedure: as §1, §2

Hs294T = test: Growth inhibition assay (SRB assay), melanoma cell line Hs294T; type: cell-based, human; conditions: Homo sapiens, Hs 294T, 72 h, mean ± SD
Procedure: as §1, §2

[1] = Solvability in DMSO (table footnote); type: physicochemical; parameters: key to solvability in dimethyl sulfoxide (DMSO): **: poor or no solvability in dimethyl sulfoxide (DMSO); key to solvability in DMSO: [b]: poor or no solvability in DMSO; conditions: for solvability in DMSO: supplement
NCI-H1581 = test: Growth inhibition assay (SRB assay), lung tumor cell line NCI-H1581; type: cell-based, human; conditions: for IC50: 72 h, SRB, mean ± SD
Procedure: as §1, §2

[2] = MIA PaCa-2, 72 h, read-out: IC50 MIA PaCa-2
[3] = MIA PaCa-2, supplement, 72 h, read-out: IC50 MIA PaCa-2 (non-rounded data)
[4] = MIA PaCa-2, supplement, 72 h, read-out: IC50 MIA PaCa-2 (raw data)
[5] = normal cell line, read-out: IC50 BALB3T3
[6] = supplement, read-out: IC50 BALB3T3 (non-rounded data)
[7] = supplement, read-out: IC50 BALB3T3 (raw data)
[8] = supplement, read-out: IC50 Hs294T (raw data)
[9] = Homo sapiens, NCI-H1581, 72 h, read-out: IC50 NCI-H1581
[10] = Homo sapiens, NCI-H1581, 72 h, supplement, read-out: IC50 NCI-H1581 (raw data)

| Structure (SMILES) | IC50 (MIA PaCa-2; [2]) [µM] | IC50 (MIA PaCa-2; [3]) [µM] | IC50 (MIA PaCa-2; [4]) | IC50 (BALB/3T3 clone A31; [5]) [µM] | IC50 (BALB/3T3 clone A31; [6]) [µM] | IC50 (BALB/3T3 clone A31; [7]) | IC50 (Hs294T; read-out: IC50 Hs294T) [µM] | IC50 (Hs294T; [8]) | solvability in dimethyl sulfoxide (DMSO) [1] | solvability in DMSO [1] | IC50 (NCI-H1581; [9]) [µM] | IC50 (NCI-H1581; [10]) [µg/mL] | SI (Selectivity Index) (NCI-H1581; SI = IC50 for normal cell line BALB/3T3 / IC50 for NCI-H1581) | IC50 (Hs294T; supplement, read-out: IC50 Hs294T (non-rounded data)) [µM] | IC50 (NCI-H1581; read-out: IC50 NCI-H1581) [µM] |
| --- | --- | --- | --- | --- | --- | --- | --- | --- | --- | --- | --- | --- | --- | --- | --- |
| C[C@@H](c1ccccc1)N1C[C@@H](n2cc(-c3ccc(-c4cn([C@@H]5CN([C@@H](C)c6ccccc6)[C@H]6CC[C@@H]5C6)nn4)cc3)nn2)[C@@H]2CC[C@H]1C2 [Compound 14, 1,4-Bis-(1-((1S,4S,5R)-2-((S)-1-phenylethyl)-2-azabicyclo[3.2.1]octan-4-yl)-1H-1,2,3-triazol-4-yl) benzene] | > 100 | > 100 | > 100 µM | > 100 | > 100 | > 100 µM | 77.3 ± 9.5 | 49.4 ± 6.07 µg/mL | 14 ** | [b] | 20.9 ± 15.2 | 13.4 ± 9.71 |  |  |  |
| C[C@@H](c1ccccc1)N1C[C@H](n2cc(-c3ccc(-c4cn([C@H]5CN([C@@H](C)c6ccccc6)[C@H]6CC[C@@H]5C6)nn4)cc3)nn2)[C@@H]2CC[C@H]1C2 [Compound 15, 1,4-Bis-(1-((1S,4R,5R)-2-((S)-1-phenylethyl)-2-azabicyclo[3.2.1]octan-4-yl)-1H-1,2,3-triazol-4-yl) benzene] | 111 ± 9.55 |  | 71.2 ± 6.1 µg/mL | 59.5 ± 11.7 |  | 38 ± 7.48 µg/mL | 58.8 ± 4.07 | 37.6 ± 2.6 µg/mL | 15 ** | [b] | 6.87 ± 1.46 | 4.39 ± 0.93 | 9 |  |  |
| C[C@@H](c1ccccc1)N1C[C@@H](n2cc(-c3cccc(-c4cn([C@@H]5CN([C@@H](C)c6ccccc6)[C@H]6CC[C@@H]5C6)nn4)c3)nn2)[C@@H]2CC[C@H]1C2 [Compound 16, 1,3-Bis-(1-((1S,4S,5R)-2-((S)-1-phenylethyl)-2-azabicyclo[3.2.1]octan-4-yl)-1H-1,2,3-triazol-4-yl) benzene] | > 100 | > 100 | > 100 µM | > 100 | > 100 | > 100 µM | > 100 | > 100 µM | 16 ** | [b] | 53.9 ± 5.07 | 34.5 ± 3.24 |  | > 100 |  |
| CC(c1ccccc1)N1C2CCC(C2)C1c1cn(CC2CCCN2C(=O)OC(C)(C)C)nn1 (centres unmarked) [Compound 21] | 90.28 ± 0.69 |  | 40.77 ± 0.31 µg/mL | > 100 |  | 48.8 ± 10.1 µg/mL | 92.6 ± 22 | 41.8 ± 9.92 µg/mL | 21 ** | [b] | 77.6 | 35 ± 3.92 |  |  | 77.6 ± 8.68 |
